Experimental data reported in patent US7772177B2, “BIR domain binding compounds” (Aegera Therapeutics, Inc., priority 2005, dated 2010).

Experiments:
Assay type in all cases: binding
GST-HIAP2 (cIAP-1) BIR 3 = target: T1, GST-HIAP2 (cIAP-1) BIR 3 (Homo sapiens, UniProt Q13490); assay: Fluorescence polarization-based competition assay, cIAP-1 Bir3
T1 construct: made in house; host or cells: E. coli DH5-alpha
Description: GST-HIAP2 (cIAP-1) BIR 3: HIAP2 coding sequence from amino acids 251-363 cloned into PGex4T3 via BamH1 and XhoI. The plasmid was transformed into E. coli DH5α for use in protein expression and purification.
(§1) A fluorescent peptide probe, Fmoc-Ala-Val-Pro-Phe-Tyr(t-Bu)-Leu-Pro-Gly(t-Bu)-Gly-OH was prepared using standard Fmoc chemistry on 2-chlorotrityl chloride resin (Int. J. Pept. Prot. Res. 38:555-561, 1991). Cleavage from the resin was performed using 20% acetic acid in dichloromethane (DCM), which left the side chain still blocked. The C-terminal protected carboxylic acid was coupled to 4′-(aminomethyl)fluorescein (Molecular Probes, A-1351; Eugene, Oreg.) using excess diisopropylcarbodiimide (DIC) in dimethylformamide (DMF) at room temperature and was purified by silica gel chromatography (10% methanol in DCM). The N-terminal Fmoc protecting group was removed using piperidine (20%) in DMF, and purified by silica gel chromatography (20% methanol in DCM, 0.5% HOAc). Finally, the t-butyl side chain protective groups were removed using 95% trifluoroacetic acid containing 2.5% water and 2.5% triisopropyl silane. […] Compound #174 was also used as a fluorescent probe in this assay.
(§2) For all assays, the fluorescence and fluorescence-polarization was evaluated using a Tecan Polarion instrument with the excitation filter set at 485 nm and the emission filter set at 535 nm. For each assay, the concentration of the target protein was first establish by titration of the selected protein in order to produce a linear dose-response signal when incubated alone in the presence of the fluorescent probe. Upon establishing these conditions, the compounds potency (IC50) and selectivity, was assessed in the presence of a fix defined-amount of target protein and fluorescent probe and a 10 point serial dilution of the selected compounds. For each IC50 curve, the assays were run as followed: 25 ul/well of diluted compound in 50 mM MES buffer pH 6.5 were added into a black 96 well plate then 25 ul/well of bovine serum albumin (BSA) at 0.5 mg/ml in 50 mM MES pH 6.5. Auto-fluorescence for each compound was first assessed by performing a reading of the compound/BSA solution alone. Then 25 ul of the fluorescein probe diluted into 50 mM MES containing 0.05 mg/ml BSA were added and a reading to detect quenching of fluorescein signal done. Finally 25 ul/well of the target or control protein (GST-BIRs) diluted at the appropriate concentration in 50 mM MES containing 0.05 mg/ml BSA were added and the fluorescence polarization evaluated.
(§3) For each assay the relative polarization-fluorescence units were plotted against the final concentrations of compound and the IC50 calculated using the Grad pad prism software and/or Cambridge soft. The ki value were derived from the calculated IC50 value as described above and according to the equation described in Nikolovska-Coleska, Z. (2004) Anal Biochem 332, 261-273.
(§4) Compounds exemplified in Table 6 were tested and found to have IC50s in the following ranges: A: >10 μM; B: <10 μM; C: <1 μM using the fluorescence polarization assay, as shown in Table 5. Each of the IC50s was calculated from Graph Pad.

GST-XIAP BIR3RING = target: T2, GST-XIAP BIR3RING (Homo sapiens, UniProt P98170); assay: Fluorescence polarization-based competition assay, XIAP Bir3-RING
T2 construct: made in house; host or cells: E. coli DH5-alpha
T2 sequence (P98170 246-497): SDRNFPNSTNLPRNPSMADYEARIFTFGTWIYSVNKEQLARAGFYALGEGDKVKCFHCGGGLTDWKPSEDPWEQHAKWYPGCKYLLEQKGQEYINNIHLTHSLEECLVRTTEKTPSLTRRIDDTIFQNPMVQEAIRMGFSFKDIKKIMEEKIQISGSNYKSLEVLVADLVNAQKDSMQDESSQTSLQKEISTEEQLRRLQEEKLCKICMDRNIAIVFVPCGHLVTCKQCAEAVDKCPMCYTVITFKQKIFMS
Description: GST-XIAP BIR3RING: XIAP coding sequence amino acids 246-497 cloned into PGEX2T1 via BamH1 and AVA I. The plasmid was transformed into E. coli DH5α for use in protein expression and purification.
as §1, §2, §3, §4

GST-HIAP1(cIAP-2) BIR 3 = target: T3, GST-HIAP1(cIAP-2) BIR 3 (Homo sapiens, UniProt Q13489); assay: Fluorescence polarization-based competition assay, cIAP-2 Bir3
T3 construct: made in house; host or cells: E. coli DH5-alpha
T3 sequence (Q13489 236-349): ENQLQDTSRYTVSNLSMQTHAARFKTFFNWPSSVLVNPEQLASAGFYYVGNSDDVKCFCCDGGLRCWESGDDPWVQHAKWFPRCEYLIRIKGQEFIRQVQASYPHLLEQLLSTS
Description: GST-HIAP1(cIAP-2) BIR 3: HIAP1 coding sequence from amino acids 236-349, cloned into PGex4T3 via BamH1 and XhoI. The plasmid was transformed into E. coli DH5α for use in protein expression and purification.
as §1, §2, §3, §4

T1 sequence (Q13490 251-363): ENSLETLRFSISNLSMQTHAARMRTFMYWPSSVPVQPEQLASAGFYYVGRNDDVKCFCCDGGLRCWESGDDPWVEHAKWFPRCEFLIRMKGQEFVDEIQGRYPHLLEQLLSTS

| IC50 (GST-HIAP2 (cIAP-1) BIR 3) | IC50 (GST-XIAP BIR3RING) | IC50 (GST-HIAP1(cIAP-2) BIR 3) | SMILES |
| --- | --- | --- | --- |
| < 1000 nM | < 10000 nM | < 1000 nM | CN[C@@H](C)C(=O)N[C@H](C(=O)N1CCC[C@H]1CN(CCc1ccccc1)C(=O)[C@@H](C)N)C(C)(C)C [Compound 36] |
| < 1000 nM | < 1000 nM | < 1000 nM | CN[C@@H](C)C(=O)N[C@H](C(=O)N1CCC[C@H]1CN(CCc1ccccc1)C(=O)[C@H](C)N)C(C)(C)C [Compound 37] |
| < 1000 nM | < 1000 nM | < 1000 nM | CN[C@@H](C)C(=O)N[C@H](C(=O)N1CCC[C@H]1CN(CCc1ccccc1)C(=O)CN(C)C)C(C)(C)C [Compound 38] |
| < 1000 nM | < 1000 nM | < 1000 nM | CC[C@H](N)C(=O)N(CCc1ccccc1)C[C@@H]1CCCN1C(=O)[C@@H](NC(=O)[C@H](C)NC)C(C)(C)C [Compound 39] |
| < 1000 nM | < 1000 nM | < 1000 nM | CN[C@@H](C)C(=O)N[C@H](C(=O)N1CCC[C@H]1CN(CCc1ccccc1)C(=O)CNc1ccccc1)C(C)(C)C [Compound 40] |
| < 1000 nM | < 10000 nM | < 1000 nM | CN[C@@H](C)C(=O)N[C@H](C(=O)N1CCC[C@H]1CN(CCc1ccccc1)C(=O)CCCN)C(C)(C)C [Compound 41] |
| < 1000 nM | < 1000 nM | < 1000 nM | CN[C@@H](C)C(=O)N[C@H](C(=O)N1CCC[C@H]1CN(CCc1ccccc1)C(=O)CNC(C)=O)C(C)(C)C [Compound 43] |
| < 1000 nM | < 1000 nM | < 1000 nM | CC[C@@H](N)C(=O)N(CCc1ccccc1)C[C@@H]1CCCN1C(=O)[C@@H](NC(=O)[C@H](C)NC)C(C)(C)C [Compound 46] |
| < 1000 nM | < 1000 nM | < 1000 nM | CN[C@@H](C)C(=O)N[C@H](C(=O)N1CCC[C@H]1CN(CCc1ccccc1)C(=O)c1ccccc1)C(C)(C)C [Compound 47] |
| < 1000 nM | < 1000 nM | < 1000 nM | CN[C@@H](C)C(=O)N[C@@H](CCCN)C(=O)N1CCC[C@H]1CN(CCc1ccccc1)C(=O)CCc1ccccc1 [Compound 49] |
| < 1000 nM | < 1000 nM | < 1000 nM | CN[C@@H](C)C(=O)N[C@H](C(=O)N1CCC[C@H]1CN(CCc1ccccc1)C(=O)[C@H]1CCCN1)C(C)(C)C [Compound 50] |
| < 1000 nM | < 1000 nM | < 1000 nM | CN[C@@H](C)C(=O)N[C@H](C(=O)N1CCC[C@H]1CN(CCc1ccccc1)C(=O)[C@@H]1CCCN1)C(C)(C)C [Compound 51] |
| < 1000 nM | < 1000 nM | < 1000 nM | CN[C@@H](C)C(=O)N[C@H](C(=O)N1CCC[C@H]1CN(CCc1ccccc1)C(=O)[C@H](N)Cc1ccc(OC)cc1)C(C)(C)C [Compound 54] |
| < 1000 nM | < 1000 nM | < 1000 nM | CN[C@@H](C)C(=O)N[C@H](C(=O)N1CCC[C@H]1CN(CCc1ccccc1)C(=O)[C@H](N)Cc1cccnc1)C(C)(C)C [Compound 55] |
| < 1000 nM | < 1000 nM | < 1000 nM | CN[C@@H](C)C(=O)N[C@H](C(=O)N1CCC[C@H]1CN(CCc1ccccc1)C(=O)[C@H](N)Cc1ccncc1)C(C)(C)C [Compound 56] |
| < 1000 nM | < 1000 nM | < 1000 nM | CN[C@@H](C)C(=O)N[C@H](C(=O)N1CCC[C@H]1CN(CCc1ccccc1)C(=O)Cc1ccccc1)C(C)(C)C [Compound 57] |
| < 1000 nM | < 10000 nM | < 1000 nM | CN[C@@H](C)C(=O)N[C@H](C(=O)N1CCC[C@H]1CN(CCc1ccccc1)C(=O)[C@H](N)CCc1ccccc1)C(C)(C)C [Compound 58] |
| < 1000 nM | < 1000 nM | < 1000 nM | CN[C@@H](C)C(=O)N[C@H](C(=O)N1CCC[C@H]1CN(C[C@@H](C)c1ccccc1)C(=O)OCc1ccccc1)C(C)(C)C [Compound 59] |
| < 1000 nM | < 1000 nM | < 10000 nM | CN[C@@H](C)C(=O)N[C@H](C(=O)N1CCC[C@H]1CN(C[C@H](C)c1ccccc1)C(=O)OCc1ccccc1)C(C)(C)C [Compound 60] |
